Legend:
[1] = system: Oryza sativa, (L.) Tebonnet; assay: Rice tolerance to post-transplant applications under flooded paddy conditions (Example 187), ORYSAT (Rice, Tebonnet); settings: for herbicidal effect rating, ORYSAT (rice tolerance) / herbicidal effect rating ORYSAT / ORYSAT herbicidal effect rating: rated three to four weeks after treatment; for ORYSAT: herbicidal effect rating 0-9, three to four weeks after treatment; for herbicidal effect rating ORYSAT: meaning of each grade not given here
[2] = system: Cyperus iria; assay: Preemergence weed control under flooded paddy conditions, CYPIR (Rice Flatsedge); format: in vivo; settings: flooded paddy; for herbicidal effect rating, CYPIR / CYPIR herbicidal effect rating: rated three to four weeks after treatment; for CYPIR: herbicidal effect rating 0-9, three to four weeks after treatment; for herbicidal effect rating, CYPIR: meaning of each grade not given here
[3] = system: Monochoria vaginalis, Presl.; assay: Preemergence weed control under flooded paddy conditions, MOOVA (Monochoria); format: in vivo; settings: flooded paddy; for herbicidal effect rating, MOOVA / MOOVA herbicidal effect rating: rated three to four weeks after treatment; for MOOVA: herbicidal effect rating 0-9, three to four weeks after treatment; for herbicidal effect rating, MOOVA: meaning of each grade not given here
[4] = system: Sagittaria pygmaea, L.; assay: Preemergence weed control under flooded paddy conditions, SAGPY (Arrowhead (Pygmaea)); format: in vivo; settings: flooded paddy; for herbicidal effect rating, SAGPY / SAGPY herbicidal effect rating: rated three to four weeks after treatment; for SAGPY: herbicidal effect rating 0-9, three to four weeks after treatment; for herbicidal effect rating, SAGPY: meaning of each grade not given here
[5] = system: Cyperus serotinus, Rottb.; assay: Preemergence weed control under flooded paddy conditions, CYPSE (Flatsedge); format: in vivo; settings: for herbicidal effect rating, CYPSE / CYPSE herbicidal effect rating: rated three to four weeks after treatment; for CYPSE: herbicidal effect rating 0-9, three to four weeks after treatment; for herbicidal effect rating, CYPSE: meaning of each grade not given here
[6] = system: Echinochloa oryzoides (Ard.) Fritsch.; assay: Preemergence weed control under flooded paddy conditions, ECHORC (Watergrass (Calif.)); format: in vivo; settings: flooded paddy; for herbicidal effect rating, ECHORC / ECHORC herbicidal effect rating: rated three to four weeks after treatment; for ECHORC: herbicidal effect rating 0-9, three to four weeks after treatment; for herbicidal effect rating, ECHORC: meaning of each grade not given here
[7] = 0.0313 kg/ha, preemergence weeds
[8] = 0.0625 kg/ha, preemergence weeds
[9] = 0.1250 kg/ha, preemergence weeds
[10] = 0.2500 kg/ha, preemergence weeds
[11] = Rate 0.0320 kg/ha, preemergence
[12] = Rate 0.0620 kg/ha, preemergence
[13] = Rate 0.1250 kg/ha, preemergence
[14] = Rate 0.2500 kg/ha, preemergence
[15] = Rate 0.5000 kg/ha, preemergence
[16] = Rate 0.0313 kg/ha, preemergence
[17] = Rate 0.0625 kg/ha, preemergence
[18] = 0.0320 kg/ha, preemergence weeds
[19] = 0.0620 kg/ha, preemergence weeds

## Cn1c(C(F)(F)F)cc(=O)n(-c2ccc3snc(COCC(F)F)c3c2)c1=O [Example 203, 3-{3-[(2,2-Difluoroethoxy)methyl]-1,2-benzisothiazol-5-yl}-1-methyl-6-(trifluoromethyl)-2,4(1H,3H)-pyrimidinedione]
[1]; 0.0313 kg/ha
  herbicidal effect rating, ORYSAT (rice tolerance): 4.0
[1]; 0.0625 kg/ha
  herbicidal effect rating, ORYSAT (rice tolerance): 6.0
[1]; 0.1250 kg/ha
  herbicidal effect rating, ORYSAT (rice tolerance): 6.0
[1]; 0.2500 kg/ha
  herbicidal effect rating, ORYSAT (rice tolerance): 7.0
[2]; [7]
  herbicidal effect rating, CYPIR: 9.0
[2]; [8]
  herbicidal effect rating, CYPIR: 9.0
[2]; [9]
  herbicidal effect rating, CYPIR: 9.0
[2]; [10]
  herbicidal effect rating, CYPIR: 9.0
[3]; [7]
  herbicidal effect rating, MOOVA: 0.0
[3]; [8]
  herbicidal effect rating, MOOVA: 0.0
[3]; [9]
  herbicidal effect rating, MOOVA: 2.0
[3]; [10]
  herbicidal effect rating, MOOVA: 8.0
[4]; [7]
  herbicidal effect rating, SAGPY: 0.0
[4]; [8]
  herbicidal effect rating, SAGPY: 0.0
[4]; [9]
  herbicidal effect rating, SAGPY: 2.0
[4]; [10]
  herbicidal effect rating, SAGPY: 4.0
[5]; [7]
  herbicidal effect rating, CYPSE: 0.0
[5]; [8]
  herbicidal effect rating, CYPSE: 0.0
[5]; [9]
  herbicidal effect rating, CYPSE: 2.0
[5]; [10]
  herbicidal effect rating, CYPSE: 6.0
[6]; [7]
  herbicidal effect rating, ECHORC: 0.0
[6]; [8]
  herbicidal effect rating, ECHORC: 0.0
[6]; [9]
  herbicidal effect rating, ECHORC: 2.0
[6]; [10]
  herbicidal effect rating, ECHORC: 4.0

## CCSCCOC(=O)c1nsc2ccc(-n3c(=O)cc(C(F)(F)F)n(C)c3=O)cc12 [Example 385, 1,2-Benzisothiazole-3-carboxylic acid, 5-[3,6-dihydro-3-methyl-2,6-dioxo-4-(trifluoromethyl)-1(2H)-pyrimidinyl]-, 2-(ethylthio)ethyl ester]
[1]; Rate 0.0320 kg/ha
  herbicidal effect rating ORYSAT: 3.0
[1]; Rate 0.0620 kg/ha
  herbicidal effect rating ORYSAT: 5.0
[1]; Rate 0.1250 kg/ha
  herbicidal effect rating ORYSAT: 7.0
[1]; Rate 0.2500 kg/ha
  herbicidal effect rating ORYSAT: 7.0
[2]; [11]
  herbicidal effect rating, CYPIR: 4.0
[2]; [12]
  herbicidal effect rating, CYPIR: 6.0
[2]; [13]
  herbicidal effect rating, CYPIR: 6.0
[2]; [14]
  herbicidal effect rating, CYPIR: 9.0
[3]; [11]
  herbicidal effect rating, MOOVA: 9.0
[3]; [12]
  herbicidal effect rating, MOOVA: 9.0
[3]; [13]
  herbicidal effect rating, MOOVA: 9.0
[3]; [14]
  herbicidal effect rating, MOOVA: 9.0
[4]; [11]
  herbicidal effect rating, SAGPY: 0.0
[4]; [12]
  herbicidal effect rating, SAGPY: 0.0
[4]; [13]
  herbicidal effect rating, SAGPY: 9.0
[4]; [14]
  herbicidal effect rating, SAGPY: 9.0
[5]; [11]
  herbicidal effect rating, CYPSE: 6.0
[5]; [12]
  herbicidal effect rating, CYPSE: 6.0
[5]; [13]
  herbicidal effect rating, CYPSE: 7.0
[5]; [14]
  herbicidal effect rating, CYPSE: 7.0
[6]; [11]
  herbicidal effect rating, ECHORC: 0.0
[6]; [12]
  herbicidal effect rating, ECHORC: 3.0
[6]; [13]
  herbicidal effect rating, ECHORC: 3.0
[6]; [14]
  herbicidal effect rating, ECHORC: 6.0

## C=Cc1nsc2ccc(-n3c(=O)cc(C(F)(F)F)n(C)c3=O)cc12 [Example 276, 2,4(1H,3H)-Pyrimidinedione, 1-methyl-6-(trifluoromethyl)-3-(3-vinyl-1,2-benzisothiazol-5-yl)-]
[1]; Rate 0.0320 kg/ha
  ORYSAT herbicidal effect rating: 4.0
[1]; Rate 0.0620 kg/ha
  ORYSAT herbicidal effect rating: 5.0
[1]; Rate 0.1250 kg/ha
  ORYSAT herbicidal effect rating: 6.0
[1]; Rate 0.2500 kg/ha
  ORYSAT herbicidal effect rating: 7.0
[1]; Rate 0.5000 kg/ha
  ORYSAT herbicidal effect rating: 9.0
[2]; [11]
  CYPIR herbicidal effect rating: 8.0
[2]; [12]
  CYPIR herbicidal effect rating: 9.0
[2]; [13]
  CYPIR herbicidal effect rating: 9.0
[2]; [14]
  CYPIR herbicidal effect rating: 9.0
[2]; [15]
  CYPIR herbicidal effect rating: 9.0
[3]; [11]
  MOOVA herbicidal effect rating: 9.0
[3]; [12]
  MOOVA herbicidal effect rating: 9.0
[3]; [13]
  MOOVA herbicidal effect rating: 9.0
[3]; [14]
  MOOVA herbicidal effect rating: 9.0
[3]; [15]
  MOOVA herbicidal effect rating: 9.0
[4]; [11]
  SAGPY herbicidal effect rating: 8.0
[4]; [12]
  SAGPY herbicidal effect rating: 9.0
[4]; [13]
  SAGPY herbicidal effect rating: 9.0
[4]; [14]
  SAGPY herbicidal effect rating: 9.0
[4]; [15]
  SAGPY herbicidal effect rating: 9.0
[5]; [11]
  CYPSE herbicidal effect rating: 2.0
[5]; [12]
  CYPSE herbicidal effect rating: 2.0
[5]; [13]
  CYPSE herbicidal effect rating: 8.0
[5]; [14]
  CYPSE herbicidal effect rating: 7.0
[5]; [15]
  CYPSE herbicidal effect rating: 7.0
[6]; [11]
  ECHORC herbicidal effect rating: 4.0
[6]; [12]
  ECHORC herbicidal effect rating: 7.7
[6]; [13]
  ECHORC herbicidal effect rating: 7.9
[6]; [14]
  ECHORC herbicidal effect rating: 9.0
[6]; [15]
  ECHORC herbicidal effect rating: 9.0

## Cc1nsc2ccc(-n3c(=O)cc(C(F)(F)F)n(Cc4ccccc4)c3=O)cc12 [Example 218, 1-Benzyl-3-(3-methyl-1,2-benzisothiazol-5-yl)-6-(trifluoromethyl)-2,4(1H,3H)-pyrimidinedione]
[1]; Rate 0.0313 kg/ha
  ORYSAT herbicidal effect rating: 1.0
[1]; Rate 0.0625 kg/ha
  ORYSAT herbicidal effect rating: 2.0
[1]; Rate 0.1250 kg/ha
  ORYSAT herbicidal effect rating: 3.0
[1]; Rate 0.2500 kg/ha
  ORYSAT herbicidal effect rating: 3.0
[2]; [16]
  CYPIR herbicidal effect rating: 0.0
[2]; [17]
  CYPIR herbicidal effect rating: 0.0
[2]; [13]
  CYPIR herbicidal effect rating: 0.0
[2]; [14]
  CYPIR herbicidal effect rating: 0.0
[3]; [16]
  MOOVA herbicidal effect rating: 8.0
[3]; [17]
  MOOVA herbicidal effect rating: 9.0
[3]; [13]
  MOOVA herbicidal effect rating: 9.0
[3]; [14]
  MOOVA herbicidal effect rating: 9.0
[4]; [16]
  SAGPY herbicidal effect rating: 0.0
[4]; [17]
  SAGPY herbicidal effect rating: 0.0
[4]; [13]
  SAGPY herbicidal effect rating: 0.0
[4]; [14]
  SAGPY herbicidal effect rating: 0.0
[5]; [16]
  CYPSE herbicidal effect rating: 0.0
[5]; [17]
  CYPSE herbicidal effect rating: 0.0
[5]; [13]
  CYPSE herbicidal effect rating: 0.0
[5]; [14]
  CYPSE herbicidal effect rating: 0.0
[6]; [16]
  ECHORC herbicidal effect rating: 0.0
[6]; [17]
  ECHORC herbicidal effect rating: 0.0
[6]; [13]
  ECHORC herbicidal effect rating: 2.0
[6]; [14]
  ECHORC herbicidal effect rating: 4.0

## C#CCOC(=O)COc1cc2c(cc1-c1nsc3ccc(-n4c(=O)cc(C(F)(F)F)n(C)c4=O)cc13)CCC2 [Example 436, Acetic acid, {{6-{5-[3,6-dihydro-3-methyl-2,6-dioxo-4-(trifluoromethyl)-1(2H)-pyrimidinyl]-1,2-benzisothiazol-3-yl}-5-indanyl}oxy}-, 2-propynyl ester]
[1]; 0.0320 kg/ha
  ORYSAT: 3.0
[1]; 0.0620 kg/ha
  ORYSAT: 5.0
[1]; 0.1250 kg/ha
  ORYSAT: 7.0
[1]; 0.2500 kg/ha
  ORYSAT: 6.0
[2]; [18]
  CYPIR: 0.0
[2]; [19]
  CYPIR: 2.0
[2]; [9]
  CYPIR: 7.0
[2]; [10]
  CYPIR: 7.0
[3]; [18]
  MOOVA: 9.0
[3]; [19]
  MOOVA: 9.0
[3]; [9]
  MOOVA: 9.0
[3]; [10]
  MOOVA: 9.0
[4]; [18]
  SAGPY: 0.0
[4]; [19]
  SAGPY: 0.0
[4]; [9]
  SAGPY: 2.0
[4]; [10]
  SAGPY: 3.0
[5]; [18]
  CYPSE: 4.0
[5]; [19]
  CYPSE: 6.0
[5]; [10]
  CYPSE: 6.0
[6]; [18]
  ECHORC: 6.0
[6]; [19]
  ECHORC: 9.0
[6]; [9]
  ECHORC: 9.0
[6]; [10]
  ECHORC: 9.0

Reference: patent EP0908457B1, “3-(1,2-benzisothiazol- and isoxazol-5-Y1)-2,4(1H,3H)-pyrimidinedione or thione and 3-(1,2-benzisothiazol- and isoxazol-5-y1)-4(3H)-pyrimidinone or thione herbicidal agents” (BASF AKTIENGESELLSCHAFT, priority 1997, dated 1999)
